Results from ChEMBL document CHEMBL1681638, “Synthesis of GN8 derivatives and evaluation of their antiprion activity in TSE-infected cells” (Bioorg Med Chem Lett, 2011).
Calls of active or inactive are those of the source. The rule behind the calls is not given here.

Assays:
GT1-7 = assay: Antiprion activity in human transmissible spongiform encephalopathies agent Fukuoka-1 prion infected GT1-7 cells assessed as proteinase K-resistant proteins at 10 uM after 3 days Western blotting analysis relative to control; assay type: cell-based
Mus musculus [1] = species: Mus musculus; assay: Effect on PrPc expression level in mouse GT1-7 at 10 uM after 3 days by Western blot method
[2] = Antiprion activity in human transmissible spongiform encephalopathies agent Fukuoka-1 prion infected GT1-7 cells assessed as proteinase K-resistant proteins after 3 days Western blotting analysis; assay type: cell-based; conditions: GT1-7, 72 h
Mus musculus [3] = species: Mus musculus; assay: Effect on PrPc expression level in mouse GT1-7 at 2 uM after 3 days by Western blot method
[4] = Cytotoxicity against mouse GT1-7 cells at 2 uM; assay type: cell-based; conditions: gt1-7, 2 µM
Mus musculus [5] = species: Mus musculus; assay: Binding affinity to mouse PrPC by surface plasmon resonance

Row | Compound | Activity (GT1-7) | further results
1 | O=C(Cn1ccnc1)Nc1ccc(Cc2ccc(NC(=O)Cn3ccnc3)cc2)cc1 | 167% | –
2 | O=C(CN1CCCC1)Nc1ccc(Cc2ccc(NC(=O)CN3CCOCC3)cc2)cc1 | 77% | –
3 | O=C(CN1CCCC1)Nc1ccc(Oc2ccc(NC(=O)CN3CCCC3)cc2)cc1 | 35% | –
4 | c1cc(NCCN2CCCC2)ccc1Cc1ccc(NCCN2CCCC2)cc1 | 28% | –
5 | O=C(CN1CCCC1)Nc1ccc2c(c1)Cc1cc(NC(=O)CN3CCCC3)ccc1-2 | 45% | –
6 | O=C(CC1CCCC1)Nc1ccc(Cc2ccc(NC(=O)CC3CCCC3)cc2)cc1 | 86% | –
7 | CCCN(CCC)CC(=O)Nc1ccc(Cc2ccc(NC(=O)CN(CCC)CCC)cc2)cc1 | 48% | –
8 | O=C(CN1CCCC1)Nc1ccc(C(O)c2ccc(NC(=O)CN3CCCC3)cc2)cc1 | 62% | –
9 | O=C(CNC1CCCC1)Nc1ccc(Cc2ccc(NC(=O)CNC3CCCC3)cc2)cc1 | 26% | –
10 | O=C(CN1CCCC1)Nc1cccc(Cc2cccc(NC(=O)CN3CCCC3)c2)c1 | 20% | Activity (Mus musculus [1]): inactive
11 | O=C(CN1CC[C@H](F)C1)Nc1ccc(Cc2ccc(NC(=O)CN3CC[C@H](F)C3)cc2)cc1 | 112% | –
12 | COC(=O)[C@@H]1CCCN1CC(=O)Nc1ccc(Cc2ccc(NC(=O)CN3CCC[C@H]3C(=O)OC)cc2)cc1 | 61% | –
13 | O=C(CN1CCCC1)Nc1ccc(CCc2ccc(NC(=O)CN3CCCC3)cc2)cc1 | 40% | –
14 | CCCCNCC(=O)Nc1ccc(Cc2ccc(NC(=O)CNCCCC)cc2)cc1 | 24% | –
15 | O=C(CN1CCCC1)Nc1ccc(Cc2ccc(NC(=O)CN3CC[C@H](O)C3)cc2)cc1 | 47% | –
16 | CN(C)[C@H]1CCN(CC(=O)Nc2ccc(Cc3ccc(NC(=O)CN4CC[C@H](N(C)C)C4)cc3)cc2)C1 | 34% | Activity (Mus musculus [1]): inactive
17 | O=C(CN1CCCC1)Nc1ccc(Sc2ccc(NC(=O)CN3CCCC3)cc2)cc1 | 22% | Activity (Mus musculus [1]): inactive
18 | O=C(CN1CCCC1)Nc1ccc(Cc2ccc(NC(=O)CN3CCC[C@H]3CO)cc2)cc1 | 47% | Activity (Mus musculus [1]): inactive
19 | Nc1c(/N=N/c2ccc(-c3ccc(/N=N/c4cc(S(=O)(=O)O)c5ccccc5c4N)cc3)cc2)cc(S(=O)(=O)O)c2ccccc12 [CONGO RED] | – | IC50 [2]: 5500 nM
20 | O=C(CN1CCCC1)Nc1ccc(S(=O)(=O)c2ccc(NC(=O)CN3CCCC3)cc2)cc1 | 17% | Activity (Mus musculus [1]): inactive
21 | CC(=O)Nc1ccc(Cc2ccc(NC(C)=O)cc2)cc1 | 84% | –
22 | O=C(CN1CCCC1)Nc1ccc(C(=O)c2ccc(NC(=O)CN3CCCC3)cc2)cc1 | 24% | Activity (Mus musculus [1]): inactive
23 | Nc1ccc(Cc2ccc(NC(=O)CN3CCCC3)cc2)cc1 | 75% | –
24 | CC(c1ccccc1)(c1ccc(NC(=O)CN2CCCC2)cc1)c1ccc(NC(=O)CN2CCCC2)cc1 | – | IC50 [2]: 660 nM

Row | Compound | Activity (GT1-7) | further results
25 | O=C(CN1CC[C@@H](O)C1)Nc1ccc(Cc2ccc(NC(=O)CN3CC[C@@H](O)C3)cc2)cc1 | 108% | –
26 | O=C(Nc1ccc(Cc2ccc(NC(=O)[C@@H]3CCCN3)cc2)cc1)[C@@H]1CCCN1 | 25% | –
27 | O=C(CN1CCCCCC1)Nc1ccc(Cc2ccc(NC(=O)CN3CCCCCC3)cc2)cc1 | 29% | Activity (Mus musculus [1]): inactive
28 | CC(C)(c1ccc(NC(=O)CN2CCCC2)cc1)c1ccc(C(C)(C)c2ccc(NC(=O)CN3CCCC3)cc2)cc1 | – | IC50 [2]: 690 nM
29 | O=C(CN1CC[C@@H](F)C1)Nc1ccc(Cc2ccc(NC(=O)CN3CC[C@@H](F)C3)cc2)cc1 | 93% | –
30 | Nc1ccc(/N=N/c2ccccc2)c(N)c1 | inactive | –
31 | O=C(CN1CCC[C@H]1C(F)(F)F)Nc1ccc(Cc2ccc(NC(=O)CN3CCC[C@H]3C(F)(F)F)cc2)cc1 | 85% | –
32 | CC(C)N(CC(=O)Nc1ccc(Cc2ccc(NC(=O)CN(C(C)C)C(C)C)cc2)cc1)C(C)C | 20% | –
33 | O=C(CN1CCCCC1)Nc1ccc(Cc2ccc(NC(=O)CN3CCCC3)cc2)cc1 | 29% | Activity (Mus musculus [1]): inactive
34 | COC(=O)[C@H]1CCCN1CC(=O)Nc1ccc(Cc2ccc(NC(=O)CN3CCC[C@@H]3C(=O)OC)cc2)cc1 | 112% | –
35 | O=C(CN1CCCC1)Nc1ccc(NC(=O)CN2CCCC2)cc1 | 88% | –
36 | CC(=O)Nc1ccc(Cc2ccc(NC(=O)CN3CCCC3)cc2)cc1 | 91% | –
37 | O=C(CN1CCCC1)Nc1ccccc1NC(=O)CN1CCCC1 | 82% | –
38 | O=C(CN1CCCC1)Nc1ccc(Cc2cccc(NC(=O)CN3CCCC3)c2)cc1 | 19% | Activity (Mus musculus [1]): inactive
39 | COc1cc(-c2ccc(NC(=O)CN3CCCC3)c(OC)c2)ccc1NC(=O)CN1CCCC1 | 42% | –
40 | O=C(CN1CC[C@H](O)C1)Nc1ccc(Cc2ccc(NC(=O)CN3CC[C@H](O)C3)cc2)cc1 | 90% | –
41 | CC(C)(C)C(c1ccc(NC(=O)CN2CCCC2)cc1)c1ccc(NC(=O)CN2CCCC2)cc1 | – | IC50 [2]: 790 nM; Activity (Mus musculus [3]): inactive
42 | O=C(CN1CCCC1)Nc1ccc(C(c2ccc(NC(=O)CN3CCCC3)cc2)C2CCCCCC2)cc1 | – | IC50 [2]: 510 nM; Activity [4]: Non-toxic; Activity (Mus musculus [3]): inactive
43 | O=C(CN(C1CCCCC1)C1CCCCC1)Nc1ccc(Cc2ccc(NC(=O)CN(C3CCCCC3)C3CCCCC3)cc2)cc1 | 106% | –
44 | O=C(Nc1ccc(Cc2ccc(NC(=O)c3ccccn3)cc2)cc1)c1ccccn1 | 122% | –
45 | O=C(CN1CCC[C@H]1CO)Nc1ccc(Cc2ccc(NC(=O)CN3CCC[C@H]3CO)cc2)cc1 | 91% | –
46 | O=C(CN1CCCC1)Nc1ccc(Cc2ccc(NC(=O)CN3CCCC3)cc2)cc1 | 25% | IC50 [2]: 1400 nM; RU (Mus musculus [5]): 15
47 | Nc1ccc(Cc2ccc(N)cc2)cc1 | 86% | –
48 | Nc1ccccc1Sc1nc(N)c(N)c(-c2ccco2)c1N | inactive | –

Row | Compound | Activity (GT1-7) | further results
49 | CN(C(=O)CN1CCCC1)c1ccc(Cc2ccc(N(C)C(=O)CN3CCCC3)cc2)cc1 | 77% | –
50 | O=C(CN1CCCC1)Nc1ccc(C(c2ccc(F)cc2)(c2ccc(NC(=O)CN3CCCC3)cc2)C(F)(F)F)cc1 | – | IC50 [2]: 510 nM; Activity [4]: Non-toxic; Activity (Mus musculus [3]): inactive; RU (Mus musculus [5]): 32
51 | CCN(CC)CCCC(C)Nc1c2ccc(Cl)cc2nc2ccc(OC)cc12 (configuration not stated) [QUINACRINE] | – | IC50 [2]: 1100 nM
52 | O=C(CN1CCCCC1)Nc1ccc(Cc2ccc(NC(=O)CN3CCCCC3)cc2)cc1 | 24% | Activity (Mus musculus [1]): inactive
53 | O=C(CN1CCC[C@@H]1CO)Nc1ccc(Cc2ccc(NC(=O)CN3CCC[C@@H]3CO)cc2)cc1 | 75% | –
54 | CC(C)(C(=O)Nc1ccc(Cc2ccc(NC(=O)C(C)(C)N3CCCC3)cc2)cc1)N1CCCC1 | 45% | –
55 | COc1ccccc1C(c1ccc(NC(=O)CN2CCCC2)cc1)c1ccc(NC(=O)CN2CCCC2)cc1 | – | IC50 [2]: 580 nM
56 | Cc1cc(Cc2cc(C)c(NC(=O)CN3CCCC3)c(C)c2)cc(C)c1NC(=O)CN1CCCC1 | 22% | Activity (Mus musculus [1]): inactive
57 | O=C(CN1CCCC1)Nc1ccc(Cc2ccc(NC(=O)CN3CC[C@@H](O)C3)cc2)cc1 | 43% | –
58 | O=C(CN1C(=O)CCC1=O)Nc1ccc(Cc2ccc(NC(=O)CN3C(=O)CCC3=O)cc2)cc1 | 90% | –
59 | O=C(CN1CCCC1)Nc1ccc(Cc2ccc(NC(=O)CN3CCCC3)c(Cl)c2)cc1Cl | 38% | –
60 | O=C(Cn1cccn1)Nc1ccc(Cc2ccc(NC(=O)Cn3cccn3)cc2)cc1 | 106% | –
61 | CN(C)[C@@H]1CCN(CC(=O)Nc2ccc(Cc3ccc(NC(=O)CN4CC[C@@H](N(C)C)C4)cc3)cc2)C1 | 31% | Activity (Mus musculus [1]): inactive
62 | NCC(=O)Nc1ccc(Cc2ccc(NC(=O)CN3CCCC3)cc2)cc1 | 62% | –
63 | O=C(CN1CCCC1)Nc1cccc2c(NC(=O)CN3CCCC3)cccc12 | 110% | –
64 | CCN(CC)CC(=O)Nc1ccc(Cc2ccc(NC(=O)CN(CC)CC)cc2)cc1 | 23% | Activity (Mus musculus [1]): inactive
65 | O=C(CN1CCCC1)Nc1ccc(Cc2ccc(NC(=O)CN3CCC[C@@H]3CO)cc2)cc1 | 44% | Activity (Mus musculus [1]): inactive
66 | CC(C)(c1ccc(NC(=O)CN2CCCC2)cc1)c1cccc(C(C)(C)c2ccc(NC(=O)CN3CCCC3)cc2)c1 | – | IC50 [2]: 830 nM
67 | O=C(CN1CCOCC1)Nc1ccc(Cc2ccc(NC(=O)CN3CCOCC3)cc2)cc1 | 93% | –
68 | NCC(=O)Nc1ccc(Cc2ccc(NC(=O)CN)cc2)cc1 | 102% | –
69 | O=C(CN1CCCC1)NCCc1ccc(NC(=O)CN2CCCC2)cc1 | 86% | –
70 | CN(C)CC(=O)Nc1ccc(Cc2ccc(NC(=O)CN(C)C)cc2)cc1 | 58% | –
